Results published in PubChem BioAssay (NCI).
Values joined by “and” are separate entries in the source; they are usually repeats but may differ in a detail not shown here. Equal entries are not always repeated.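 Test compounds were applied to cells in 96-well plates for 48 hours at 5 doses. GI50 marks 50% less growth. TGI marks complete inhibition of growth.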

Experiments:
Test in all cases: NCI tumour cell line growth inhibition, 48 h
CAKI-1 renal = test system: CAKI-1 renal
HCT-15 colon = test system: HCT-15 colon
HOP-62 NSCLC = test system: HOP-62 NSCLC
HT29 colon = test system: HT29 colon
MCF7 breast = test system: MCF7 breast
MDA-N = test system: MDA-N
MOLT-4 leukemia = test system: MOLT-4 leukemia
NCI-H226 lung = test system: NCI-H226 lung
PC-3 prostate = test system: PC-3 prostate
XF 498 CNS = test system: XF 498 CNS

Structure (SMILES) | TGI (CAKI-1 renal) | TGI (HCT-15 colon) | TGI (HOP-62 NSCLC) | TGI (HT29 colon) | TGI (MCF7 breast) | TGI (MDA-N) | TGI (MOLT-4 leukemia) | TGI (NCI-H226 lung) | TGI (PC-3 prostate) | TGI (XF 498 CNS) | GI50 (CAKI-1 renal) | GI50 (HCT-15 colon) | GI50 (HOP-62 NSCLC) | GI50 (MDA-N) | GI50 (NCI-H226 lung) | GI50 (PC-3 prostate) | GI50 (XF 498 CNS) | GI50 (HT29 colon) | GI50 (MCF7 breast) | GI50 (MOLT-4 leukemia)
COC12C(COC(N)=O)C3=C(C(=O)C(C)=C(N)C3=O)N1CC1C2N1C (stereo unspecified) | 22 µM | 55.1 µM | 16.8 µM | 43.2 µM | 22.3 µM | 35.3 µM | 18.6 µM | 38.8 µM | 61.6 µM | 21 µM |  |  |  |  |  |  |  |  |  | 
Cn1c2ccccc2c2ncc3[nH]c4ccccc4c3c21 | 68.8 µM | 63.7 µM | > 100 µM | 31.1 µM |  |  | 67.4 µM | 51.8 µM |  | 31.8 µM |  |  |  |  |  |  |  |  |  | 
CCN(CC)CCSc1c2ccccc2nc2c(OC)ccc(OC)c12 | > 22.2 µM |  | > 70.2 µM | 23.1 µM |  |  | 3.84 µM | 50.7 µM |  | > 21.1 µM |  |  |  |  |  |  |  |  |  | 
C/C(=N\NC(=S)N1CCCCCC1)c1ccccn1 | 5.45 µM and 10.4 µM | 1.99 µM and 4.43 µM | 2.4 µM and 3.98 µM | 2.52 µM and 10.6 µM | 0.0245 µM | 1.5 µM | 3.46 µM and > 31.9 µM | 3.62 µM and 5.35 µM | 2.9 µM and 2.61 µM |  | < 0.0393 µM | 0.0497 µM | 0.0381 µM | 0.169 µM | 0.245 µM | 0.183 µM | 0.0141 µM |  |  | 
CSc1nc(NC2OC(COC(C)=O)C(OC(C)=O)C(OC(C)=O)C2OC(C)=O)c(N=CC=Nc2c(NC3OC(COC(C)=O)C(OC(C)=O)C(OC(C)=O)C3OC(C)=O)nc(SC)n(C)c2=O)c(=O)n1C (stereo unspecified) | > 100 µM | > 100 µM | 50 µM and 29.8 µM | > 100 µM | > 100 µM | > 100 µM | > 100 µM | > 50 µM and 97.8 µM | > 100 µM | 30.3 µM | > 50 µM | > 50 µM | 21.2 µM |  |  | > 50 µM |  | > 50 µM | > 50 µM | > 50 µM
CC(C)(C)[Si](C)(C)OC1C(=O)C[C@H]2CCCC[C@@H]12 (stereo partly specified) | > 100 µM | > 100 µM | > 100 µM | > 100 µM |  |  | > 100 µM |  |  | > 100 µM |  |  |  |  |  |  |  |  |  | 
COc1ccc2c(c1)c[n+](C)c1c3cc(OC)c(OC)cc3ccc21 | 32.2 µM and 44 µM | 30 µM and > 74.1 µM | 15.2 µM | 2.31 µM and 15.5 µM |  | 3.08 µM and 8.07 µM | 3.81 µM and 17.9 µM | 14.8 µM and 25.9 µM | 3.84 µM and 16 µM | 17.1 µM |  |  | 4.63 µM |  | 4.22 µM and 12.1 µM | 1.36 µM and 4.32 µM |  | 1.01 µM and 3.61 µM |  | 0.358 µM and 1.7 µM
CC(=O)N1CCC(=O)/C(=C/c2ccccc2)C1 | 30 µM | 48.2 µM | > 100 µM | 38.8 µM |  |  | > 100 µM | > 100 µM |  | > 100 µM |  |  |  |  |  |  |  |  |  | 
COC(=O)c1cc2c(s1)-c1nccc3c1c(nc1ccccc13)C2=O | > 100 µM | > 100 µM | > 100 µM | > 100 µM | > 100 µM | > 100 µM | > 100 µM | > 100 µM | > 100 µM |  | > 100 µM | > 100 µM | 65.4 µM | 32.9 µM | > 100 µM | > 100 µM |  | > 100 µM | 26.1 µM | > 100 µM
C[Si](C)(C)/C(I)=C/CO |  | 72.1 µM |  | 44.5 µM |  |  | 35.3 µM | 39.3 µM |  | 31.9 µM |  |  |  |  |  |  |  |  |  | 
O=C(O)c1ccc(C(=O)O)c2c(C(=O)O)ccc(C(=O)O)c12 | > 100 µM | > 100 µM | > 100 µM | > 100 µM | > 100 µM | > 100 µM | > 100 µM | > 100 µM | > 100 µM |  |  |  |  |  |  |  |  |  |  | 
CS/C(=C(\S)c1ccccc1)c1ccccc1 | > 100 µM | > 100 µM | > 100 µM | > 100 µM |  |  |  | > 100 µM |  | > 100 µM |  |  |  |  |  |  |  |  |  | 
O=c1[nH]c2ccc(O)cc2o1 | > 100 µM | > 100 µM | > 100 µM | > 100 µM | > 100 µM | > 100 µM | > 100 µM | > 100 µM | > 100 µM |  |  |  |  |  |  |  |  |  |  | 
CC(C)=CCc1cc2c(cc1O)OC[C@H]1c3cc4c(cc3O[C@@H]21)OCO4 | > 100 µM | > 100 µM | > 100 µM | > 100 µM | 58.7 µM | > 100 µM | 57.4 µM | 69.7 µM | > 100 µM |  |  |  |  |  |  |  |  |  |  | 
Cc1ccc(S(=O)OCc2c(C)c(C)c(COS(=O)c3ccc(C)cc3)c(C)c2C)cc1 (stereo unspecified) | > 100 µM | > 100 µM | > 100 µM | > 100 µM |  |  | > 100 µM | > 100 µM |  | > 100 µM |  |  |  |  |  |  |  |  |  | 
O=C(CNS(=O)(=O)Cc1ccccc1)NNc1ccccc1 | > 100 µM | > 100 µM | > 100 µM | > 100 µM | > 100 µM | > 100 µM | > 100 µM | > 100 µM | > 100 µM |  |  |  |  |  |  |  |  |  |  | 
O=C1CCC(=O)c2c1c(O)c1ccncc1c2O | 42.4 µM | 26.3 µM | 69 µM | 21.3 µM |  |  | 43.1 µM | 45.3 µM |  | 32.7 µM |  |  |  |  |  |  |  |  |  | 
CCc1c(Cl)c(C)cc(O)c1Cl | > 100 µM | 38.9 µM | > 100 µM | 77.6 µM | > 100 µM | 41.3 µM | 95.2 µM | 63.2 µM | 51.3 µM |  |  |  |  |  |  |  |  |  |  | 
CCOC(=O)c1ccc(N=Nc2cc(C(=O)OCC)ccc2O)cc1 | > 100 µM | > 100 µM | > 100 µM | > 100 µM |  |  | > 100 µM |  |  | 22 µM |  |  |  |  |  |  |  |  |  | 
C[Si](C)(C)/C(Br)=C\CCN1C(=O)CCC1=O | > 100 µM | > 100 µM | > 100 µM | > 100 µM |  |  | > 100 µM | > 100 µM |  | > 100 µM |  |  |  |  |  |  |  |  |  | 
CC12CCC3c4ccc(O)cc4CCC3C1C/C(=N\O)C2O (stereo unspecified) | > 100 µM | > 100 µM | > 100 µM | > 100 µM | > 100 µM | > 100 µM | > 100 µM | > 100 µM | > 100 µM |  |  |  |  |  |  |  |  |  |  | 
C=COC(=O)N[C@H]1CCc2cc(OC)c(OC)c(OC)c2-c2ccc(SC)c(=O)cc21 | 45.9 µM | > 100 µM | > 86.6 µM | 0.149 µM | 59.8 µM | < 0.01 µM | > 96.8 µM | 0.793 µM | > 100 µM | > 62.3 µM |  |  |  |  |  |  |  |  |  | 
C[C@]12CCC(=O)C=C1CC[C@@H]1C2CC[C@]2(C)Nc3[nH]ncc3CC12 (stereo partly specified) | > 100 µM | > 100 µM | > 100 µM | > 100 µM |  |  | > 100 µM | > 100 µM |  | > 100 µM |  |  |  |  |  |  |  |  |  | 
[N-]=[N+]=N/C1=C/CCCCC(=O)C1 | > 100 µM | > 100 µM | > 100 µM | > 100 µM |  |  | > 100 µM |  |  | > 100 µM |  |  |  |  |  |  |  |  |  | 
